Reference: patent US9938258B2 (Karyopharm Therapeutics Inc., priority 2012, dated 2018)
Structures can show the parent of a compound that is named as a salt. Where two headings read alike, the source gives them in different places.

Assays:
MS751 cells = assay: MTT cell proliferation assay, MS751; format: cell-based, human; details: Homo sapiens
Method: (§1) The MTT cell proliferation assay was used to study the cytotoxic properties of the compounds. The assay was performed according to the method described by Roche Molecular Biochemicals, with minor modifications. The assay is based on the cleavage of the tetrazolium salt, MTT, in the presence of an electron-coupling reagent. The water-insoluble formazan salt produced must be solubilized in an additional step. Cells grown in a 96-well tissue culture plate were incubated with the MTT solution for approximately 4 hours. After this incubation period, a water-insoluble formazan dye formed. After solubilization, the formazan dye was quantitated using a scanning multi-well spectrophotometer (ELISA reader). […] The cells were seeded at 5,000-10,000 cells in each well of 96-well plate in 100 μL of fresh culture medium and were allowed to attach overnight. The stock solutions of the compounds were diluted in 100 μL cell culture medium to obtain eight concentrations of each test compound, ranging from 1 nM to 30 μM. […] All optical densities were measured at 490 nm using a Vmax Kinetic Microplate Reader (Molecular Devices). In most cases, the assay was performed in duplicate and the results were presented as a mean percent inhibition to the negative control±SE. The following formula was used to calculate the percent of inhibition: Inhibition (%)=(1-(ODo/OD)) ×100.
(§2) The compounds were tested against MS751, Z138 and 3T3 cells. The MS751 cell line is derived from a metastasis to lymph node of human cervix from a patient diagnosed with squameous cell carcinoma of the cervix. The Z138 cell line is a mature B-cell acute lymphoblastic leukemia cell line derived from a patient with chronic lumphocytic leukemia. 3T3 cells are standard fibroblast cells; they were originally isolated from Swiss mouse embryo tissue.

Z138 cells = assay: MTT cell proliferation assay, Z138; format: cell-based; details: Homo sapiens
Method: as §1, §2

3T3 cells = assay: MTT cell proliferation assay, 3T3; format: cell-based, mouse; details: Mus musculus
Method: as §1, §2

[1] = MS751, MS751 cells, approximately 64-72 hours incubation, read-out: MTT Assay IC50, MS751
[2] = Z-138, Z138 cells, approximately 64-72 hours incubation, read-out: MTT Assay IC50, Z138
[3] = NIH3T3, 3T3 cells, approximately 64-72 hours incubation, read-out: MTT Assay IC50, 3T3
[4] = MS751, MS751 cells, eight concentrations 1 nM to 30 μM, incubation approximately 64-72 hours, read-out: MTT Assay IC50, MS751
[5] = Z-138, Z138 cells, eight concentrations 1 nM to 30 μM, incubation approximately 64-72 hours, read-out: MTT Assay IC50, Z138
[6] = NIH3T3, 3T3 cells, eight concentrations 1 nM to 30 μM, incubation approximately 64-72 hours, read-out: MTT Assay IC50, 3T3

SMILES | IC50 (MS751 cells; [1]) [µM] | IC50 (Z138 cells; [2]) [µM] | IC50 (3T3 cells; [3]) [µM] | IC50 (MS751 cells; [4]) [µM] | IC50 (Z138 cells; [5]) [µM] | IC50 (3T3 cells; [6]) [µM] | other results
CC(=O)c1ccc(-c2cc(Cl)c3c(c2)CC(CNC(=O)/C=C(/C)c2cccnc2)O3)s1 (stereo not drawn) [Compound 282, (Z)-N-((5-(5-Acetylthiophen-2-yl)-7-chloro-2,3-dihydrobenzofuran-2-yl)methyl)-3-(pyridin-3-yl)but-2-enamide] | 0.1 to 5 | 0.1 to 5 | > 30 |  |  |  | 
CC(=O)c1ccc(-c2cc(Cl)c3c(c2)CC(CNC(=O)/C=C/c2cnc(C(C)(C)C)s2)O3)s1 (stereo not drawn) [Compound 205, (E)-N-((5-(5-acetylthiophen-2-yl)-7-chloro-2,3-dihydrobenzofuran-2-yl)methyl)-3-(2-tert-butylthiazol-5-yl)acrylamide] | 5 to 30 | 0.1 to 5 | > 30 |  |  |  | 
CC(=O)c1ccc(-c2cc(Cl)c3c(c2)CC(CNC(=O)/C=C/c2cc(C)[nH]c2C)O3)s1 (stereo not drawn) [Compound 185, (E)-N-((5-(5-acetylthiophen-2-yl)-7-chloro-2,3-dihydrobenzofuran-2-yl)methyl)-3-(2,5-dimethyl-1H-pyrrol-3-yl)acrylamide] |  |  |  | > 30 | > 30 | > 30 | 
CC(=O)c1ccc(-c2cc(Cl)c3c(c2)CC(CNC(=O)/C=C/c2cscn2)O3)s1 (stereo not drawn) [Compound 272, (E)-N-((5-(5-Acetylthiophen-2-yl)-7-chloro-2,3-dihydrobenzofuran-2-yl)methyl)-3-(thiazol-4-yl)acrylamide] |  |  |  | > 30 | > 30 | 5 to 30 | 
Nc1ccc(CNC(=O)/C=C/C2Cc3cc(-c4ccc(C(=O)N5CC(F)(F)C5)cc4)cc(Cl)c3O2)cn1 (stereo not drawn) [Compound 351, (E)-N-((6-aminopyridin-3-yl)methyl)-3-(7-chloro-5-(4-(3,3-difluoroazetidine-1-carbonyl)phenyl)-2,3-dihydrobenzofuran-2-yl)acrylamide] | 0.1 to 5 | 0.1 to 5 | 0.1 to 5 |  |  |  | 
CC(=O)c1ccc(-c2cc(Cl)c3c(c2)CC(CNC(=O)/C=C/c2ccn(C)c2)O3)s1 (stereo not drawn) [Compound 213, (E)-N-((5-(5-acetylthiophen-2-yl)-7-chloro-2,3-dihydrobenzofuran-2-yl)methyl)-3-(1-methyl-1H-pyrrol-3-yl)acrylamide] | > 30 | > 30 | > 30 |  |  |  | 
CC(=O)c1ccc(-c2cc(Cl)c3c(c2)CC(CNC(=O)/C=C/c2nccn2-c2ccccc2)O3)s1 (stereo not drawn) [Compound 201, (E)-N-((5-(5-acetylthiophen-2-yl)-7-chloro-2,3-dihydrobenzofuran-2-yl)methyl)-3-(1-phenyl-1H-imidazol-2-yl)acrylamide] | 5 to 30 | 5 to 30 | 5 to 30 |  |  |  | 
CN1CCN(C(=O)c2ccc(-c3cc(Cl)c4c(c3)CC(CNC(=O)/C=C/c3ccc(N)nc3)O4)cc2)CC1 (stereo not drawn) [Compound 237, (E)-3-(6-aminopyridin-3-yl)-N-((7-chloro-5-(4-(4-methylpiperazine-1-carbonyl)phenyl)-2,3-dihydrobenzofuran-2-yl)methyl)acrylamide] | < 0.1 | < 0.1 | 0.1 to 5 |  |  |  | 
CC(C)(C)c1ccc(-c2ccc(C(=O)N3CCOCC3)cc2)c2c1OC(CNC(=O)/C=C/c1ccc(N)nc1)C2 (stereo not drawn) [Compound 355, (E)-3-(6-aminopyridin-3-yl)-N-((7-(tert-butyl)-4-(4-(morpholine-4-carbonyl)phenyl)-2,3-dihydrobenzofuran-2-yl)methyl)acrylamide] | > 30 | > 30 | 0.1 to 5 |  |  |  | 
CC(=O)c1ccc(-c2cc(Cl)c3c(c2)CC(CNS(=O)(=O)/C=C/c2cccnc2)O3)s1 (stereo not drawn) [Compound 310, (E)-N-((5-(5-acetylthiophen-2-yl)-7-chloro-2,3-dihydrobenzofuran-2-yl)methyl)-2-(pyridine-3-yl) ethenesulphonamide] |  |  |  |  |  |  | IC50 (MS751 cells; MS751, read-out: MTT Assay IC50, MS751): > 30 µM; IC50 (Z138 cells; Z-138, read-out: MTT Assay IC50, Z138): 5 to 30 µM; IC50 (3T3 cells; NIH3T3, read-out: MTT Assay IC50, 3T3): > 30 µM
CC(=O)c1ccc(-c2cc(Cl)c3c(c2)CC(CNC(=O)/C=C/c2nc4ccccc4s2)O3)s1 (stereo not drawn) [Compound 190, (E)-N-((5-(5-acetylthiophen-2-yl)-7-chloro-2,3-dihydrobenzofuran-2-yl)methyl)-3-(benzo[d]thiazol-2-yl)acrylamide] |  |  |  | > 30 | > 30 | > 30 | 
O=C(/C=C/c1cccnc1)NCC1Cc2cc(-c3cc(F)c(F)c(F)c3)cc(Cl)c2O1 (stereo not drawn) [Compound 21, (E)-N-((7-chloro-5-(3,4,5-trifluorophenyl)-2,3-dihydrobenzofuran-2-yl)methyl)-3-(pyridin-3-yl)acrylamide] |  |  |  | 0.1 to 5 | 0.1 to 5 | > 30 | 
CC(=O)c1ccc(-c2cc(Cl)c3c(c2)CC(CNC(=O)/C=C/c2cccnc2C)O3)s1 (stereo not drawn) [Compound 182, (E)-N-((5-(5-acetylthiophen-2-yl)-7-chloro-2,3-dihydrobenzofuran-2-yl)methyl)-3-(2-methylpyridin-3-yl)acrylamide] |  |  |  | 5 to 30 | > 30 | > 30 | 
CC(=O)c1ccc(-c2ccc(Cl)c3c2CC(CNC(=O)/C=C/c2ccc(N)nc2)O3)s1 (stereo not drawn) [Compound 218, hydrochloride] | < 0.1 | < 0.1 | 5 to 30 |  |  |  | 
O=C(/C=C/c1cccnc1)NCC1Cc2cc(-c3ccc(C(=O)O)cc3)cc(Cl)c2O1 (stereo not drawn) [Compound 129, (E)-4-(7-chloro-2-((3-(pyridin-3-yl)acrylamido)methyl)-2,3-dihydrobenzofuran-5-yl)benzoic acid] |  |  |  | 5 to 30 | 5 to 30 | 5 to 30 | 
Nc1ccc(CNC(=O)/C=C/C2Cc3cc(-c4cccc(S(=O)(=O)N5CCOCC5)c4)cc(Cl)c3O2)cn1 (stereo not drawn) [Compound 357, (E)-N-((6-aminopyridin-3-yl)methyl)-3-(7-chloro-5-(3-(morpholinosulfonyl)phenyl)-2,3-dihydrobenzofuran-2-yl) acrylamide] | < 0.1 | 0.1 to 5 | < 0.1 |  |  |  | 
O=C(/C=C/c1cccnc1)NCC1Cc2cc(-c3cccc(F)c3F)cc(Cl)c2O1 (stereo not drawn) [Compound 73, (E)-N-((7-chloro-5-(2,3-difluorophenyl)-2,3-dihydrobenzofuran-2-yl)methyl)-3-(pyridin-3-yl)acrylamide] |  |  |  | 0.1 to 5 | 0.1 to 5 | 5 to 30 | 
Cc1onc(-c2ccccc2)c1-c1cc(Cl)c2c(c1)CC(CNC(=O)/C=C/c1ccc(N)nc1)O2 (stereo not drawn) [Compound 325, (E)-3-(6-aminopyridin-3-yl)-N-((7-chloro-5-(5-methyl-3-phenylisoxazol-4-yl)-2,3-dihydrobenzofuran-2-yl)methyl)acrylamide] | 0.1 to 5 | < 0.1 | 0.1 to 5 |  |  |  | 
CC(=O)c1ccc(-c2cc(Cl)c3c(c2)CC(CNC(=O)/C=C/c2cnccn2)O3)s1 (stereo not drawn) [Compound 258, (E)-N-((5-(5-acetylthiophen-2-yl)-7-chloro-2,3-dihydrobenzofuran-2-yl)methyl)-3-(pyrazin-2-yl)acrylamide] |  |  |  | > 30 | > 30 | > 30 | 
CC1(C)CN(C(=O)c2ccc(-c3cc(Cl)c4c(c3)CC(/C=C/C(=O)NCc3ccc(N)nc3)O4)cc2)C1 (stereo not drawn) [Compound 362, (E)-N-((6-aminopyridin-3-yl)methyl)-3-(7-chloro-5-(4-(3,3-dimethylazetidine-1-carbonyl)phenyl)-2,3-dihydrobenzofuran-2-yl)acrylamide] | < 0.1 | > 30 | < 0.1 |  |  |  | 
CC(=O)c1ccc(-c2cc(Cl)c3c(c2)CC(CNC(=O)/C=C/c2cccnc2)O3)o1 (stereo not drawn) [Compound 99, (E)-N-((5-(5-acetylfuran-2-yl)-7-chloro-2,3-dihydrobenzofuran-2-yl)methyl)-3-(pyridin-3-yl)acrylamide] |  |  |  | < 0.1 | < 0.1 | 0.1 to 5 | 
CC(=O)c1ccc(-c2cc(Cl)c3c(c2)CC(CNC(=O)/C=C/c2c(C)nn(CC(C)C)c2Cl)O3)s1 (stereo not drawn) [Compound 154, (E)-N-((5-(5-acetylthiophen-2-yl)-7-chloro-2,3-dihydrobenzofuran-2-yl)methyl)-3-(5-chloro-1-isobutyl-3-methyl-1H-pyrazol-4-yl)acrylamide] |  |  |  | > 30 | > 30 | > 30 | 
CC(=O)c1ccc(-c2cc(Cl)c3c(c2)CC(CNC(=O)/C=C/c2cccnc2)O3)s1 (stereo not drawn) [Compound 27, (E)-N-((5-(5-acetylthiophen-2-yl)-7-chloro-2,3-dihydrobenzofuran-2-yl)methyl)-3-(pyridin-3-yl)acrylamide] |  |  |  | < 0.1 | < 0.1 | 0.1 to 5 | 
